Source: the supplement of paper PMC13380429

Columns and labels:
[1] = test system: A549-ACE2 infected with SARS-CoV-2; test: morphology score (similarity to uninfected cells); higher = more like uninfected cells; settings: 24 h
Vero E6 [2] = test: cell viability relative to DMSO; higher = less toxic; settings: 72 h
HepG2 [3] = test: as above; settings: 72 h
U2OS [4] = test: as above; settings: 72 h
Caco-2 [5] = test: as above; settings: 72 h
Calu-3 [6] = test: as above; settings: 72 h
A549-ACE2 = test: drug-induced phospholipidosis relative to tamoxifen; higher = more phospholipidosis
[7] = test system: A549-ACE2 infected with SARS-CoV-2; test: SARS-CoV-2 infection rate relative to DMSO; higher = more infection; settings: 24 h
Vero E6 [8] = test: relative viability EC50 (midpoint between 100% and the lowest measured viability); higher = less toxic; settings: 72 h
HepG2 [9] = test: as above; settings: 72 h
U2OS [10] = test: as above; settings: 72 h
Caco-2 [11] = test: as above; settings: 72 h
Calu-3 [12] = test: as above; settings: 72 h
Vero E6 [13] = test: drug sensitivity score (DSS) for viability; higher = more toxic; extreme values may be limits of the assay; settings: 72 h
HepG2 [14] = test: as above; settings: 72 h
U2OS [15] = test: as above; settings: 72 h
Caco-2 [16] = test: as above; settings: 72 h
Calu-3 [17] = test: as above; settings: 72 h
[18] = test system: A549-ACE2 infected with SARS-CoV-2; test: cell count relative to DMSO; higher = less toxic; settings: 24 h

C[C@H]1[C@H](NC(=O)/C(=N\OC(C)(C)C(=O)O)c2csc(N)n2)C(=O)N1S(=O)(=O)O [aztreonam]
Settings	SARS-CoV-2 infection rate, [7] [%]	cell count, [18] [%]	cell viability, Caco-2 [5] [%]	cell viability, Calu-3 [6] [%]	cell viability, HepG2 [3] [%]	cell viability, U2OS [4] [%]	cell viability, Vero E6 [2] [%]	morphology score, [1]
1 nM	–	–	96.9	103	93	99.3	93	–
10 nM	–	–	91.7	99.8	108	93.9	95.2	–
100 nM	–	–	94.5	94.6	96.3	98.4	93.3	–
0.3 µM	105	102	–	–	–	–	–	0.12
1000 nM	–	–	96.2	95.6	101	97.6	96.1	–
3 µM	109	97	–	–	–	–	–	-0.22
10 µM	98	99	–	–	–	–	–	0.07
10000 nM	–	–	104	103	104	92.5	102	–
30 µM	93	107	–	–	–	–	–	0.28

drug-induced phospholipidosis [%], A549-ACE2
Settings	0.3 µM	0.833333 µM	3.33333 µM	6.66667 µM	10 µM	30 µM
24 h	0.05	-0.48	-0.4	1.8	0.46	0.6
48 h	4.27	0.47	-0.36	-0.48	2.78	5.88
72 h	2.06	-3.37	-0.186	-0.381	3.05	4.25

Settings	drug sensitivity score	relative viability EC50 [µM]
Caco-2 [11]	–	> 10
Caco-2 [16]	0	–
Calu-3 [12]	–	> 10
Calu-3 [17]	0	–
HepG2 [9]	–	> 10
HepG2 [14]	0	–
U2OS [10]	–	> 10
U2OS [15]	0	–
Vero E6 [8]	–	> 10
Vero E6 [13]	0	–

OC(CCN1CCCCC1)(c1ccccc1)C1CC2C=CC1C2 (centres undefined) [biperiden]
Settings	SARS-CoV-2 infection rate, [7] [%]	cell count, [18] [%]	cell viability, Caco-2 [5] [%]	cell viability, Calu-3 [6] [%]	cell viability, HepG2 [3] [%]	cell viability, U2OS [4] [%]	cell viability, Vero E6 [2] [%]	morphology score, [1]
1 nM	–	–	93.2	103	93.3	99.4	92.7	–
10 nM	–	–	96	108	108	101	95.8	–
100 nM	–	–	99	108	99.5	102	95.2	–
0.3 µM	106	100	–	–	–	–	–	-0.01
1000 nM	–	–	97.9	101	110	97	96.2	–
3 µM	76	107	–	–	–	–	–	0.49
10 µM	55	112	–	–	–	–	–	0.74
10000 nM	–	–	104	95.4	97.2	95.3	101	–
30 µM	44	113	–	–	–	–	–	0.76

drug-induced phospholipidosis [%], A549-ACE2
Settings	0.3 µM	0.833333 µM	3.33333 µM	6.66667 µM	10 µM	30 µM
24 h	6.44	3.39	3.47	5.73	10.9	32.9
48 h	5.46	-0.33	0.38	9.63	13.4	30.6
72 h	8.44	0.683	2.98	6.62	5.63	27.3

Settings	drug sensitivity score	relative viability EC50 [µM]
Caco-2 [11]	–	> 10
Caco-2 [16]	0	–
Calu-3 [12]	–	> 10
Calu-3 [17]	0	–
HepG2 [9]	–	> 10
HepG2 [14]	0	–
U2OS [10]	–	> 10
U2OS [15]	0	–
Vero E6 [8]	–	> 10
Vero E6 [13]	0	–

C=C[C@@]1(C)CC(=O)[C@]2(O)[C@@]3(C)[C@@H](O)CCC(C)(C)[C@@H]3[C@H](OC(=O)CCN(C)C)[C@H](OC(C)=O)[C@@]2(C)O1 [colforsin-daproate]
Settings	SARS-CoV-2 infection rate, [7] [%]	cell count, [18] [%]	cell viability, Caco-2 [5] [%]	cell viability, Calu-3 [6] [%]	cell viability, HepG2 [3] [%]	cell viability, U2OS [4] [%]	cell viability, Vero E6 [2] [%]	morphology score, [1]
1 nM	–	–	101	103	93.9	105	98	–
10 nM	–	–	98.9	95.5	100	103	93.9	–
0.1 µM	88	99	–	–	–	–	–	0.33
100 nM	–	–	109	99.2	94	102	96.5	–
0.3 µM	98	105	–	–	–	–	–	0.05
1 µM	106	105	–	–	–	–	–	-0.06
1000 nM	–	–	94	106	100	101	90.5	–
3 µM	108	104	–	–	–	–	–	-0.03
10000 nM	–	–	89.1	98.9	95.3	97.3	77	–

drug-induced phospholipidosis [%], A549-ACE2
Settings	0.3 µM	0.833333 µM	3.33333 µM	6.66667 µM	10 µM	30 µM
24 h	-0.11	-0.39	-2.43	1	1.72	23.6
48 h	0.82	-1.25	-1.96	0.45	2.53	34.6
72 h	2.97	-1.9	-2.38	-1.51	0.457	–

Settings	drug sensitivity score	relative viability EC50 [µM]
Caco-2 [11]	–	> 10
Caco-2 [16]	0.1	–
Calu-3 [12]	–	> 10
Calu-3 [17]	0	–
HepG2 [9]	–	> 10
HepG2 [14]	0	–
U2OS [10]	–	> 10
U2OS [15]	0	–
Vero E6 [8]	–	> 10
Vero E6 [13]	1.3	–
